≈ marks a conversion by molar mass, not a printed value.
Assays:
Experiment in all cases: Antifungal MIC, broth dilution
[1] = tested on: C. albicans ATCC 24433; assay type: cell-based, Candida albicans; details: Candida albicans, ATCC24433, RPMI 1640 with MOPS, end point 48 hours
Protocol: (§1) The compounds of Formula 1 were tested for antifungal activity against Candida albicans, Aspergillus niger and Fusarium proliferatum. In vitro evaluation of antifungal activity was performed by determining the minimum inhibitory concentration (MIC) following standard methods (CLSI: Reference method for broth dilution antifungal susceptibility testing of yeasts; Approved standard, second edition M27-A2, 2002; CLSI: Reference method for broth dilution antifungal susceptibility testing of filamentous fungi; Approved standard M38-A, 2002). Anti-fungal susceptibility testing of these anti-fungal compounds was done by broth dilution method using RPMI 1640 medium with MOPS buffer. Known anti-fungal agents like fluconazole and amphotericin-B were used as positive control. End points were determined after 48 hours visually and by using spectrophotometer wherever necessary. Different dilutions were tried and various sets of experiments performed. The activity parameters are enumerated in Table 5.

[2] = tested on: C. glabrata ATCC 90030; assay type: cell-based; details: Nakaseomyces glabratus, ATCC90030, RPMI 1640 with MOPS, end point 48 hours, read-out: Cg01 MIC50
[3] = tested on: C. krusei ATCC 6258; assay type: cell-based; details: Pichia kudriavzevii, ATCC6258, RPMI 1640 with MOPS, end point 48 hours, read-out: Ck01 MIC50
[4] = tested on: C. tropicalis ATCC 750; assay type: cell-based; details: Candida tropicalis, ATCC750, RPMI 1640 with MOPS, end point 48 hours, read-out: Ct01 MIC50
[5] = tested on: C. neoformans ATCC 34664; assay type: cell-based; details: Cryptococcus neoformans, ATCC34664, RPMI 1640 with MOPS, end point 48 hours, read-out: Cn01 MIC50
[6] = tested on: A. niger ATCC 16404; assay type: cell-based, Aspergillus niger; details: Aspergillus niger, ATCC16404, RPMI 1640 with MOPS, end point 48 hours, read-out: An01 MIC50
Protocol: as §1

[7] = tested on: A. fumigatus ATCC 46645; assay type: cell-based; details: Aspergillus fumigatus, ATCC46645, RPMI 1640 with MOPS, end point 48 hours, read-out: Afm01 MIC50
[8] = tested on: F. proliferatum ATCC 10052; assay type: cell-based, Fusarium proliferatum; details: Fusarium proliferatum, ATCC10052, RPMI 1640 with MOPS, end point 48 hours, read-out: Fp01 MIC50
Protocol: as §1

MIC80 ([1]; read-out: Ca01 A: MIC80): 0.5 µg/mL (≈ 0.915 µM)
MIC50 ([1]; read-out: Ca01 B: MIC50): 0.5 µg/mL (≈ 0.915 µM)
MIC50 [2]: 0.5 µg/mL (≈ 0.915 µM)
MIC50 [3]: 4 µg/mL (≈ 7.32 µM)
MIC50 [4]: 1 µg/mL (≈ 1.83 µM)
MIC50 [5]: 1 µg/mL (≈ 1.83 µM)
MIC50 [6]: > 4 µg/mL
MIC50 [7]: > 4 µg/mL
MIC50 [8]: > 4 µg/mL
SMILES: O=C(c1ccc(OCC(O)(Cn2cncn2)c2ccc(F)cc2F)cc1)C1OC1c1ccc(Cl)cc1Cl (stereo not drawn) [Compound 1B-2, (3-(2,4-dichlorophenyl)oxiran-2-yl) (4-(2-(2,4-difluorophenyl)-2-hydroxy-3-(1H-1,2,4-triazol-1-yl)propoxy)phenyl)methanone]

— patent publication US9512087B2, “Hybrid molecules containing pharmacophores of fluconazole as antifungal agents and their preparation” (Council for Scientific & Industrial Research, priority 2011, dated 2016)
